Experimental data: ChEMBL document CHEMBL4699602, “Stapled and Xenopus Glucagon-Like Peptide 1 (GLP-1)-Based Dual GLP-1/Gastrin Receptor Agonists with Improved Metabolic Benefits in Rodent Models of Obesity and Diabetes” (J Med Chem, 2020)
Activity calls are given as the source filed them. The calls are words filed in the database; no cut-off is given here. Where a SMILES comes first, the peptide text is derived from it.

What was measured:
serum albumin = serum albumin (Homo sapiens, UniProt P02768); assay: Binding affinity to human serum albumin in PBS pH 7.4 at 100 ug/mL incubated for 2 hrs by LC-MS/MS analysis relative to control; format: ADME; conditions: at 100 µg/mL, read-out: PB (converted)
Mus musculus [1] = assay: Hypoglycemic activity in non-fasted db/db mouse assessed as decrease in blood glucose concentration at 25 nmol/kg, sc by OGTT method; format: functional, organism-based
Mus musculus [2] = assay: Reduction in fasted hyperglycemia in C57BL/6 mouse model of diet induced obesity at 25 nmol/kg, sc BID for 1 week relative to control; format: functional, organism-based; conditions: time 1.0 weeks
Mus musculus [3] = assay: Reduction in food intake in C57BL/6 mouse model of diet induced obesity at 25 nmol/kg, sc BID for 1 week relative to control; format: functional, organism-based; conditions: time 1.0 weeks
Mus musculus [4] = assay: Reduction in body weight in C57BL/6 mouse model of diet induced obesity at 25 nmol/kg, sc BID for 1 week relative to control; format: functional; parameters: scale not given: the % may be the effect or the level left; conditions: time 1 weeks
[5] = biological target: T1, Glucagon-like peptide 1 receptor (Homo sapiens, UniProt P43220); assay: Ratio of EC50 for agonist activity at human GLP-1R expressed in HEK293 cells in presence of 4.4% HSA to EC50 for agonist activity at human GLP-1R expressed in HEK293 cells in presence of 0% HSA; format: cell-based
[6] = biological target: T1, Glucagon-like peptide 1 receptor; assay: Agonist activity at human GLP-1R expressed in HEK293 cells assessed as stimulation of cAMP accumulation incubated for 20 mins in presence of 4.4% HSA; format: functional, cell-based
[7] = biological target: T1, Glucagon-like peptide 1 receptor; assay: Agonist activity at human GLP-1R expressed in HEK293 cells assessed as stimulation of cAMP accumulation incubated for 20 mins in presence of 0% HSA; format: functional, cell-based
Mus musculus [8] = assay: Reduction in body weight in C57BL/6 mouse model of diet induced obesity at 25 nmol/kg, sc dosed every 2 days for 1 week relative to control; format: functional; parameters: scale not given: the % may be the effect or the level left; conditions: time 1 weeks
Mus musculus [9] = assay: Hypoglycemic activity in non-fasted db/db mouse assessed as duration of time during which decrease in blood glucose concentration is observed at 25 nmol/kg, sc by OGTT method; format: functional
Mus musculus [10] = assay: Reduction in fasted hyperglycemia in C57BL/6 mouse model of diet induced obesity at 25 nmol/kg, sc dosed every 2 days for 1 week relative to control; format: functional, organism-based; conditions: time 1.0 weeks
Mus musculus [11] = assay: Reduction in food intake in C57BL/6 mouse model of diet induced obesity at 25 nmol/kg, sc dosed every 2 days for 1 week relative to control; format: functional, organism-based; conditions: time 1.0 weeks

T1 sequence (P43220 whole entry): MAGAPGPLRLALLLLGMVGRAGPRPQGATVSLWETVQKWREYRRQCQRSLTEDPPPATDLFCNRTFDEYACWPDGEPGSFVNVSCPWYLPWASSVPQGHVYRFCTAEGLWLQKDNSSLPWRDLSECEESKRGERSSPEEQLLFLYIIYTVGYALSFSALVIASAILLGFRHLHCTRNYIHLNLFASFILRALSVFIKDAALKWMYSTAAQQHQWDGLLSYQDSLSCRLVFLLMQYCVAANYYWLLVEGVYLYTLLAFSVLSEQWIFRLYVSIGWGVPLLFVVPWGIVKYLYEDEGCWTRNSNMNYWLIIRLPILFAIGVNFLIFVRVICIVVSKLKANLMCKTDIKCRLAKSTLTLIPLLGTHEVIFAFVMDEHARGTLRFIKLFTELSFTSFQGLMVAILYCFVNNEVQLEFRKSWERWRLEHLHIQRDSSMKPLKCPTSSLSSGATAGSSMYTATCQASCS
Sequence of serum albumin (P02768 whole entry): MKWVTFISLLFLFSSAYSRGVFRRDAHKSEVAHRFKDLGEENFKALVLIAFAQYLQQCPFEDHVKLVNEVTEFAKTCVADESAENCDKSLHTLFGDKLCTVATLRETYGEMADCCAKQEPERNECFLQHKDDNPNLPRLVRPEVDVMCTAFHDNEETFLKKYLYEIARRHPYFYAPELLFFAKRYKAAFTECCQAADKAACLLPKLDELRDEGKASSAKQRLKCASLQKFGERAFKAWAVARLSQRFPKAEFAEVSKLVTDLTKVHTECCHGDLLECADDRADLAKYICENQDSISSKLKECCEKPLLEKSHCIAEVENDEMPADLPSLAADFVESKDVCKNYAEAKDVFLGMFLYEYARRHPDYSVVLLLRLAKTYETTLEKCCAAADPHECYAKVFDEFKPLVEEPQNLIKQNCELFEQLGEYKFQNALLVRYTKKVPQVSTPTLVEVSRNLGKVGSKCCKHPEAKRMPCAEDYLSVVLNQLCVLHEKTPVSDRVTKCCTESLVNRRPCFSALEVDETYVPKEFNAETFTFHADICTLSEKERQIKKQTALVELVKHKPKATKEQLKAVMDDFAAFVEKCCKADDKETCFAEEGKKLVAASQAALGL

SMILES	fraction unbound at 2 h, 100 ug/mL (serum albumin)	Activity (Mus musculus [1])	Activity (Mus musculus [2])	Activity (Mus musculus [3])	Activity (Mus musculus [4]) [%]	Ratio EC50 [5]	EC50 [6] [nM]	EC50 [7] [nM]	Activity (Mus musculus [8]) [%]	Time (Mus musculus [9]) [h]	Activity (Mus musculus [10])	Activity (Mus musculus [11])
CCCCCCCCCCCCCCCC(=O)NCCCCCCNC(=O)C1CCCCNC(=O)CCN2C(=O)CC(SC[C@H](NC(=O)[C@H](Cc3ccc(O)cc3)NC(=O)[C@H](CCC(=O)O)NC(=O)[C@@H](NC(=O)[C@@H](NC(=O)[C@H](CC(=O)O)NC(=O)[C@H](CC(N)=O)NC(=O)[C@@H](NC(=O)[C@H](Cc3ccc(O)cc3)NC(=O)[C@@H](NC(=O)CNC(=O)[C@H](CCC(=O)O)NC(=O)C(C)(C)NC(=O)[C@@H](N)Cc3c[nH]cn3)[C@@H](C)O)[C@@H](C)O)C(C)C)[C@@H](C)O)C(=O)N[C@@H](CCC(=O)O)C(=O)N[C@@H](CCC(=O)O)C(=O)N[C@@H](CCC(=O)O)C(=O)N[C@@H](C)C(=O)N[C@@H](C)C(=O)N[C@@H](CCCCN)C(=O)N[C@H](C(=O)N[C@@H](Cc3ccccc3)C(=O)N[C@H](C(=O)N[C@@H](CCC(=O)O)C(=O)N[C@@H](Cc3c[nH]c4ccccc34)C(=O)N[C@@H](CC(C)C)C(=O)N[C@H](C(=O)N[C@@H](CCCCN)C(=O)NCC(=O)N[C@@H](CCCCN)C(=O)N3CCC[C@H]3C(=O)N[C@@H](CO)C(=O)N[C@@H](CO)C(=O)NCC(=O)N[C@@H](C)C(=O)N3CCC[C@H]3C(=O)N3CCC[C@H]3C(=O)N3CCC[C@H]3C(=O)N[C@@H](CO)C(N)=O)[C@@H](C)CC)[C@@H](C)CC)CSC3CC(=O)N(CCC(=O)N1)C3=O)C2=O (some centres undefined) (HELM PEPTIDE1{H.[Aib].E.G.T.Y.T.N.D.V.T.E.Y.C.E.E.E.A.A.K.C.F.I.E.W.L.I.K.G.K.P.S.S.G.A.P.P.P.S.[am]}|CHEM1{[CCCCCCCCCCCCCCCC(=O)NCCCCCCNC(=O)C(CCCCNC(=O)CCN1C(=O)CC([*:1])C1=O)NC(=O)CCN1C(=O)CC([*:2])C1=O]}$PEPTIDE1,CHEM1,14:R3-1:R1|PEPTIDE1,CHEM1,21:R3-1:R2$$$V2.0)	0.162	Active	Active	Active	14.4	22.2	0.91	0.041				
CC[C@H](C)[C@H](NC(=O)[C@H](CC(C)C)NC(=O)[C@H](Cc1c[nH]c2ccccc12)NC(=O)[C@H](CCC(=O)O)NC(=O)[C@@H](NC(=O)[C@H](Cc1ccccc1)NC(=O)[C@@H]1CSC2CC(=O)N(CCC(=O)NC(C(=O)NCCCCCCNC(=O)COCCOCCNC(=O)CCC(NC(=O)CCCCCCCCCCCCCCCCC(=O)O)C(=O)O)CCCCNC(=O)CCN3C(=O)CC(SC[C@H](NC(=O)[C@H](Cc4ccc(O)cc4)NC(=O)[C@H](CCC(=O)O)NC(=O)[C@@H](NC(=O)[C@@H](NC(=O)[C@H](CC(=O)O)NC(=O)[C@H](CC(N)=O)NC(=O)[C@@H](NC(=O)[C@H](Cc4ccc(O)cc4)NC(=O)[C@@H](NC(=O)CNC(=O)[C@H](CCC(=O)O)NC(=O)C(C)(C)NC(=O)[C@@H](N)Cc4c[nH]cn4)[C@@H](C)O)[C@@H](C)O)C(C)C)[C@@H](C)O)C(=O)N[C@@H](CCC(=O)O)C(=O)N[C@@H](CCC(=O)O)C(=O)N[C@@H](CCC(=O)O)C(=O)N[C@@H](C)C(=O)N[C@@H](C)C(=O)N[C@@H](CCCCN)C(=O)N1)C3=O)C2=O)[C@@H](C)CC)C(=O)N[C@@H](CCCCN)C(=O)NCC(=O)N[C@@H](CCCCN)C(N)=O (some centres undefined) (HELM PEPTIDE1{H.[Aib].E.G.T.Y.T.N.D.V.T.E.Y.C.E.E.E.A.A.K.C.F.I.E.W.L.I.K.G.K.[am]}|CHEM1{[O=C(O)CCCCCCCCCCCCCCCCC(=O)NC(CCC(=O)NCCOCCOCC(=O)NCCCCCCNC(=O)C(CCCCNC(=O)CCN1C(=O)CC([*:1])C1=O)NC(=O)CCN1C(=O)CC([*:2])C1=O)C(=O)O]}$PEPTIDE1,CHEM1,14:R3-1:R1|PEPTIDE1,CHEM1,21:R3-1:R2$$$V2.0)	0.074	Active				47.5	2.8	0.059	9.8	24	Active	Active
CCCCCCCCCCCCCCCC(=O)NCCCCCCNC(=O)C1CCCCNC(=O)CCN2C(=O)CC(SC[C@H](NC(=O)[C@H](CCCCN)NC(=O)[C@H](C)NC(=O)[C@H](C)NC(=O)[C@H](CCC(=O)O)NC(=O)[C@H](CCC(=O)O)NC(=O)[C@H](CCC(=O)O)NC(=O)[C@H](CC(C)C)NC(=O)[C@H](Cc3ccc(O)cc3)NC(=O)[C@H](CCC(=O)O)NC(=O)[C@@H](NC(=O)[C@@H](NC(=O)[C@H](CC(=O)O)NC(=O)[C@H](CC(N)=O)NC(=O)[C@@H](NC(=O)[C@H](Cc3ccc(O)cc3)NC(=O)[C@@H](NC(=O)CNC(=O)[C@H](CCC(=O)O)NC(=O)C(C)(C)NC(=O)[C@@H](N)Cc3c[nH]cn3)[C@@H](C)O)[C@@H](C)O)C(C)C)[C@@H](C)O)C(=O)N[C@@H](Cc3ccccc3)C(=O)N[C@@H]([C@@H](C)CC)C(=O)N[C@@H](CCC(=O)O)C(=O)N[C@@H](Cc3c[nH]c4ccccc34)C(=O)N[C@@H](CC(C)C)C(=O)N[C@@H]([C@@H](C)CC)C(=O)N[C@H](C(=O)NCC(=O)N[C@@H](CCCCN)C(=O)N3CCC[C@H]3C(=O)N[C@@H](CO)C(=O)N[C@@H](CO)C(=O)NCC(=O)N[C@@H](C)C(=O)N3CCC[C@H]3C(=O)N3CCC[C@H]3C(=O)N3CCC[C@H]3C(=O)N[C@@H](CO)C(N)=O)CSC3CC(=O)N(CCC(=O)N1)C3=O)C2=O (some centres undefined) (HELM PEPTIDE1{H.[Aib].E.G.T.Y.T.N.D.V.T.E.Y.L.E.E.E.A.A.K.C.F.I.E.W.L.I.C.G.K.P.S.S.G.A.P.P.P.S.[am]}|CHEM1{[CCCCCCCCCCCCCCCC(=O)NCCCCCCNC(=O)C(CCCCNC(=O)CCN1C(=O)CC([*:1])C1=O)NC(=O)CCN1C(=O)CC([*:2])C1=O]}$PEPTIDE1,CHEM1,21:R3-1:R1|PEPTIDE1,CHEM1,28:R3-1:R2$$$V2.0)	0.15	Active	Active	Active	15.2	24.1	1.3	0.054				
CC[C@H](C)[C@@H]1NC(=O)[C@H](CC(C)C)NC(=O)[C@H](Cc2c[nH]c3ccccc23)NC(=O)[C@H](CCC(=O)O)NC(=O)[C@H]([C@@H](C)CC)NC(=O)[C@H](Cc2ccccc2)NC(=O)[C@@H](NC(=O)[C@H](CCCCN)NC(=O)[C@H](C)NC(=O)[C@H](C)NC(=O)[C@H](CCC(=O)O)NC(=O)[C@H](CCC(=O)O)NC(=O)[C@H](CCC(=O)O)NC(=O)[C@H](CC(C)C)NC(=O)[C@H](Cc2ccc(O)cc2)NC(=O)[C@H](CCC(=O)O)NC(=O)[C@@H](NC(=O)[C@@H](NC(=O)[C@H](CC(=O)O)NC(=O)[C@H](CC(N)=O)NC(=O)[C@@H](NC(=O)[C@H](Cc2ccc(O)cc2)NC(=O)[C@@H](NC(=O)CNC(=O)[C@H](CCC(=O)O)NC(=O)C(C)(C)NC(=O)[C@@H](N)Cc2c[nH]cn2)[C@@H](C)O)[C@@H](C)O)C(C)C)[C@@H](C)O)CSC2CC(=O)N(CCC(=O)NC(C(=O)NCCCCCCNC(=O)COCCOCCNC(=O)CCC(NC(=O)CCCCCCCCCCCCCCCCC(=O)O)C(=O)O)CCCCNC(=O)CCN3C(=O)CC(SC[C@@H](C(=O)NCC(=O)N[C@@H](CCCCN)C(N)=O)NC1=O)C3=O)C2=O (some centres undefined) (HELM PEPTIDE1{H.[Aib].E.G.T.Y.T.N.D.V.T.E.Y.L.E.E.E.A.A.K.C.F.I.E.W.L.I.C.G.K.[am]}|CHEM1{[O=C(O)CCCCCCCCCCCCCCCCC(=O)NC(CCC(=O)NCCOCCOCC(=O)NCCCCCCNC(=O)C(CCCCNC(=O)CCN1C(=O)CC([*:2])C1=O)NC(=O)CCN1C(=O)CC([*:1])C1=O)C(=O)O]}$PEPTIDE1,CHEM1,21:R3-1:R1|PEPTIDE1,CHEM1,28:R3-1:R2$$$V2.0)	0.084	Active				55.1	3.8	0.069	13.4	24	Active	Active
